# Results taken from patent US8101777B2, “Ionic liquids based on imidazolium salts incorporating a nitrile functionality” (Ecole Polytechnique Federale de Lausanne, priority 2003, dated 2012).
# How the values were obtained:
# [1] = Density determined with a picometer; format: physicochemical; conditions: room temperature (20±1° C.), 1.0 ml of sample, average of three
# Method: (§1) The 1-methylimidazole and 1,2-dimethylimidazole and chloronitriles are purchased from Fluka, HPF6 and NaBF4 are purchased from Aldrich and are used as received without further purification. The synthesis of the imidazolium salts 1a-5a is performed under an inert atmosphere of dry nitrogen using standard Schlenk techniques in solvents dried using the appropriate reagents and distilled prior to use. All other compounds are made without precautions to exclude air or moisture. IR spectra are recorded on a Perkin-Elmer FT-IR 2000 system. […] Electrospray ionization mass spectra (ESI-MS) are recorded on a ThermoFinnigan LCQ™ Deca XP Plus quadrupole ion trap instrument on sample diluted in methanol.^19 Samples are infused directly into the source at 5 μL min^−1 using a syringe pump and the spray voltage is set at 5 kV and the capillary temperature at 50° C. Samples 2c, 3c, 4a, 4b and 4c are purified by filtration through silica and left under vacuum (ca. 0.1 mm Hg) at 40-50° C. in order to remove traces of salt impurities and volatile components. […] Density is determined with a picometer at room temperature (20±1° C.) on 1.0 ml of sample. The measurements are repeated three times and average values are used. Viscosities are measured with a Brookfield DV-II+ viscometer on 0.50 ml of sample. The temperature of the samples is maintained to 25±1° C. by means of an external temperature controller. The measurements are performed in duplicate.
# [2] = Viscosity, Brookfield DV-II+ viscometer; format: physicochemical
# Method: as §1, with “The temperature of the samples is maintained to 25±1° C. by means of an external temperature controller.” left out
# [3] = Solubility in common solvents
# [4] = Stability of the nitrile-functionalised anion towards catalytic hydrogenation; format: physicochemical; conditions: 8 mg with RuCl2(PMe3)4 (1 mg) in acetone, H2 40 bar, 35° C., 48 hours
# Method: The stability of the nitrile-functionalised anion towards catalytic hydrogenation is tested by pressurising a solution of K[CH3CH(BF3)CH2CN] (8 mg) and RuCl2(PMe3)4 (1 mg) in acetone (0.4 ml) with H2 (40 bar) at 35° C.
# [5] = 25±1° C., 0.50 ml of sample, duplicate
Reduction of the nitrile-functionalised anion under catalytic hydrogenation [4],Molecule,Density [1] [g/mL],"Viscosity [2, 5] [mpa · s]",Solubility in common solvents: Acetone [3],Solubility in common solvents: Et2O [3],Solubility in common solvents: EtOH [3],Solubility in common solvents: H2O [3],Solubility in common solvents: Hexane [3],Viscosity ([2]; 20° C.) [cp]
–,[1-ethylnitrile-3-methylimidazolium]Cl [[C2CNmim][Cl]],2.67,2856,immiscible,immiscible,miscible,miscible,immiscible,–
–,[1-butylnitrile-3-methylimidazolium]Cl [[C4CNmim][Cl]],1.61,5222,immiscible,immiscible,miscible,miscible,immiscible,–
–,"CCCCn1cc[n+](C)c1.F[P-](F)(F)(F)(F)F [[C4mim][PF6], reference compound]",1.37,320.3,miscible,immiscible,partly,partly,immiscible,–
–,[1-butylnitrile-3-methylimidazolium]PF6 [[C4CNmim][PF6]],1.99,2181,miscible,immiscible,immiscible,partly,immiscible,–
–,"Cn1cc[n+](CCCC(=O)O)c1.F[B-](F)(F)F [[C3COOHmim][BF4], 1-methyl-3-proylcarboxylimidazolium tetrafluoroborate, reference compound]",–,–,–,–,–,–,–,4415
–,[1-butylnitrile-3-methylimidazolium]BF4 [[C4CNmim][BF4]],1.71,552.9,miscible,immiscible,immiscible,miscible,immiscible,–
–,"C=CC[n+]1ccn(C)c1.F[B-](F)(F)F [[CC═Cmim][BF4], 1-methyl-3-allylimidazolium tetrafluoroborate, reference compound]",–,–,–,–,–,–,–,6110
–,[1-ethyinitrile-3-methylimidazolium]BF4 [[C2CNmim][BF4]],2.15,65.5,miscible,immiscible,miscible,miscible,immiscible,–
–,[1-propylnitrile-3-methylimidazolium]BF4 [[C3CNmim][BF4]],1.87,230,miscible,immiscible,immiscible,miscible,immiscible,230.0
–,"CCCCn1cc[n+](C)c1.F[B-](F)(F)F [[C4mim][BF4], 1-methyl-3-butylimidazolium tetrafluoroborate, reference compound]",1.14,115.2,miscible,immiscible,immiscible,miscible,–,115.2
No reduction was observed,CC(CC#N)[B-](F)(F)F.[K+] (stereo not drawn) [K[CH3CH(BF3)CH2CN]],–,–,–,–,–,–,–,–
